Among the data in US20240315994A1, “SMALL MOLECULE MODULATORS OF FERROPTOSIS” (ARPEGGIO BIOSCIENCES, INC., priority 2021, published 2024) are IC50 values, retold here.

Structures are written as SMILES.

The first assay concerns HT1080 cells (ATCC, cat #CCL-121). The assay is described as follows: HT1080 CellTiter-Glo 2.0 IC50 assay of working examples. Format: cell-based. The note with it: HT-1080, 24 hrs, cells plated with and without 1.5 μM ferrostatin-1, table does not say which, Table 7. The procedure: Biological evaluation of working examples A1-A47 and B1-B28 was performed in HT1080 cells (ATCC, cat #CCL-121) according to the procedure provided below.
• 1.1 Cells were harvested from flask into cell culture medium and then the cell number count was determined. • 1.2 The cells were suspended with 1.5 μM ferrostatin-1 and without ferrostatin-1. • 1.3 Cells were plated at a density of 1,500 cells per well in a 384-well black sided clear bottom plate, in 25 μL, using electronic multichannel pipette. • 1.4 Plates were covered with lid and spun for 1 min at 1000 rpm, then allowed to incubate overnight at 37° C. under 5% CO2.
• 2.1 Compounds were dissolved at 10 mM stock solution and 10 μl of diluted solution was transferred to a 384 LDV-plate (LABCYTE, LP-0200). A 3 fold, 11-point dilution was performed. • 2.2 Cells were treated with compounds by plate reformat Echo software and spun for 1 min at 1000 rpm. Then incubated at 37° C. for 24 hrs in a CO2 incubator.
• 3.1 The plates were removed from the incubator and allowed to equilibrate to room temperature, at least 30 minutes. • 3.2 CellTiter-Glo® 2.0 Reagent (Promega, G9242) was added (25 μL) to the assay plates and spun for 1 min at 1000 rpm. Then allowed to stand for about 20 minutes before reading luminescence signal on Envision. • 3.3 The IC50 calculations were determined with a nonlinear fit, variable slope (four parameters) log(inhibitor) vs. response model using GraphPad PRISM.
On to `Cc1cc(C)cc(N(Cc2ccccc2Cl)C(=O)CCl)c1` [Compound A6, 2-chloro-N-[(2-chlorophenyl)methyl]-N-(3,5-dimethylphenyl)acetamide], for which the IC50 was 100 to 1000 nM.

`Cc1cc(C)cc(N(Cc2ccc(F)cc2)C(=O)CCl)c1` [Compound A1, 2-chloro-N-(3,5-dimethylphenyl)-N-[(4-fluorophenyl)methyl]acetamide] displayed an IC50 of 100 to 1000 nM.

`COc1cc(OC)cc(N(Cc2cccc(F)c2F)C(=O)CCl)c1` [Compound A20, 2-chloro-N-[(2,3-difluorophenyl)methyl]-N-(3,5-dimethoxyphenyl)acetamide] returned an IC50 of 10 to 100 nM.

The compound `O=C(CCl)N(Cc1ccc(F)cc1)c1cnc2[nH]nc(Br)c2c1` [Compound A39, N-(3-bromo-1H-pyrazolo[3,4-b]pyridin-5-yl)-2-chloro-N-[(4-fluorophenyl)methyl]acetamide] came in with a half-maximal inhibitory concentration (IC50) of 1000 to 10000 nM.

`COc1cc(OC)cc(N(Cc2ccc(F)cc2C(F)(F)F)C(=O)CCl)c1` [Compound A27, 2-chloro-N-(3,5-dimethoxyphenyl)-N-[[4-fluoro-2-(trifluoro-methyl)phenyl]methyl]acetamide] returned an IC50 of 10 to 100 nM.

`O=C(CCl)N(Cc1ccc(F)cc1)c1cc(Cl)cc(Cl)c1` [Compound A16, 2-chloro-N-(3,5-dichlorophenyl)-N-[(4-fluorophenyl)methyl]acetamide] showed an IC50 of 100 to 1000 nM.

Regarding `COc1cc(OC)cc(N(Cc2ccc(F)cc2Br)C(=O)CCl)c1` [Compound A23, N-[(2-bromo-4-fluoro-phenyl)methyl]-2-chloro-N-(3,5-dimethoxyphenyl)acetamide], the IC50 lay in the range of 10 to 100 nM.

As for `Cc1ccc(CN(C(=O)CCl)c2cc(C)cc(C)c2)cc1` [Compound A10, 2-chloro-N-(3,5-dimethylphenyl)-N-(p-tolylmethyl)acetamide], the concentration for half-maximal inhibition (IC50) is 100 to 1000 nM.

With `COc1cc(OC)cc(N(Cc2ccc(F)cc2)C(=O)CCl)c1` [Compound A3, 2-chloro-N-(3,5-dimethoxyphenyl)-N-[(4-fluorophenyl)methyl]acetamide], the IC50 fell in the range of 10 to 100 nM.

`COc1cc(OC)cc(N(Cc2cc(C#N)ccc2F)C(=O)CCl)c1` [Compound A28, 2-chloro-N-[(5-cyano-2-fluoro-phenyl)methyl]-N-(3,5-dimethoxyphenyl)acetamide] registered an IC50 of 10 to 100 nM.

`COc1cc(OC)cc(N(Cc2ccc(F)c(OC)c2)C(=O)CCl)c1` [Compound A33, 2-chloro-N-(3,5-dimethoxyphenyl)-N-[(4-fluoro-3-methoxy-phenyl)methyl]acetamide] gave an IC50 of at most 10 nM.

Regarding `COc1cc(N(Cc2ccc(F)cc2)C(=O)CCl)ccc1C` [Compound A29, 2-chloro-N-[(4-fluorophenyl)methyl]-N-(3-methoxy-4-methyl-phenyl)acetamide], the half-maximal inhibitory concentration (IC50) is 10 to 100 nM.

For the compound `COc1cc(OC)cc(N(Cc2c(C)cc(F)cc2C)C(=O)CCl)c1` [Compound A30, 2-chloro-N-(3,5-dimethoxyphenyl)-N-[(4-fluoro-2,6-dimethyl-phenyl)methyl]acetamide], the IC50 was at most 10 nM.

The compound `COc1cccc(N(Cc2ccc(F)cc2)C(=O)CCl)c1Cl` [Compound A35, 2-chloro-N-(2-chloro-3-methoxy-phenyl)-N-[(4-fluorophenyl)methyl]acetamide] showed a half-maximal inhibitory concentration (IC50) of 100 to 1000 nM.

Regarding `COc1cc(OC)cc(N(Cc2c(Cl)cc(F)cc2Cl)C(=O)CCl)c1` [Compound A26, 2-chloro-N-[(2,6-dichloro-4-fluoro-phenyl)methyl]-N-(3,5-dimethoxyphenyl)acetamide], the IC50 fell in the range of 10 to 100 nM.

Regarding `COc1cc(OC)cc(N(Cc2ccc(Br)c(F)c2F)C(=O)CCl)c1` [Compound A38, N-[(4-bromo-2,3-difluoro-phenyl)methyl]-2-chloro-N-(3,5-dimethoxyphenyl)acetamide], the IC50 is at most 10 nM.

Compound `COc1cc(OC)cc(N(Cc2ccc(C#N)cc2)C(=O)CCl)c1` [Compound A19, 2-chloro-N-[(4-cyanophenyl)methyl]-N-(3,5-dimethoxyphenyl)acetamide] came in with an IC50 of 10 to 100 nM.

`COc1cc(C)cc(N(Cc2ccc(F)cc2)C(=O)CCl)c1` [Compound A25, 2-chloro-N-[(4-fluorophenyl)methyl]-N-(3-methoxy-5-methyl-phenyl)acetamide] gave an IC50 of 100 to 1000 nM.

As to `O=C(CCl)N(Cc1ccc(F)cc1)c1cccc(Cl)c1` [Compound A18, 2-chloro-N-(3-chlorophenyl)-N-[(4-fluorophenyl)methyl]acetamide], the IC50 was in the range of 100 to 1000 nM.

`COc1cc(OC)cc(N(Cc2ccc(O)cc2)C(=O)CCl)c1` [Compound A24, 2-chloro-N-(3,5-dimethoxyphenyl)-N-[(4-hydroxyphenyl)methyl]acetamide] gave an IC50 of 100 to 1000 nM.

`COc1cc(OC)cc(N(Cc2cc(C)cc(F)c2)C(=O)CCl)c1` [Compound A44, 2-chloro-N-(3,5-dimethoxyphenyl)-N-[(3-fluoro-5-methyl-phenyl)methyl]acetamide] displayed a 50% inhibitory concentration (IC50) of 10 to 100 nM.

On to `COc1ccc(N(Cc2ccc(F)cc2)C(=O)CCl)c(C#N)c1` [Compound A36, 2-chloro-N-(2-cyano-4-methoxy-phenyl)-N-[(4-fluorophenyl)methyl]acetamide], for which the half-maximal inhibitory concentration (IC50) lay within 1000 to 10000 nM.

As for `O=C(CCl)N(Cc1ccc(F)cc1)c1cc(O)cc(Cl)c1` [Compound A34, 2-chloro-N-(3-chloro-5-hydroxy-phenyl)-N-[(4-fluorophenyl)methyl]acetamide], the IC50 was in the range of 100 to 1000 nM.

Staying with this assay, now noted: HT-1080, 24 hrs, cells plated with and without 1.5 μM ferrostatin-1, table does not say which, Table 8.
In turn, `O=C(CCl)N(Cc1ccccc1)c1nc(-c2ccc(Br)cc2)cs1` [Compound B14, N-benzyl-N-[4-(4-bromophenyl)thiazol-2-yl]-2-chloro-acetamide] displayed an IC50 of 1000 to 10000 nM.

Turning to `C#CC(=O)N(c1cc(Cl)cc(Cl)c1)c1nc(-c2ccc(Br)cc2)cs1` [Compound B22, N-[4-(4-bromophenyl)thiazol-2-yl]-N-(3,5-dichlorophenyl)prop-2-ynamide], the IC50 fell in the range of 10 to 100 nM.

Regarding `COc1ccc(-c2csc(N(C(=O)CCl)c3cc(C)cc(C)c3)n2)cc1` [Compound B9, 2-chloro-N-(3,5-dimethylphenyl)-N-[4-(4-methoxyphenyl)thiazol-2-yl]acetamide], the concentration for half-maximal inhibition (IC50) lay within 100 to 1000 nM.

For `C#CC(=O)N(c1cc(OC)cc(OC)c1)c1nc(-c2ccc(Br)cc2)cs1` [Compound B19, N-[4-(4-bromophenyl)thiazol-2-yl]-N-(3,5-dimethoxyphenyl)prop-2-ynamide], the IC50 fell in the range of 10 to 100 nM.

Compound `Cc1cc(C)cc(N(C(=O)CCl)c2nc(-c3ccccc3)cs2)c1` [Compound B11, 2-chloro-N-(3,5-dimethylphenyl)-N-(4-phenylthiazol-2-yl)acetamide] returned a half-maximal inhibitory concentration (IC50) of 100 to 1000 nM.

The compound `C#CC(=O)N(c1cc(C)cc(C)c1)c1nc(-c2ccc(Br)cc2)cs1` [Compound B13, N-[4-(4-bromophenyl)thiazol-2-yl]-N-(3,5-dimethylphenyl)prop-2-ynamide] returned an IC50 of 10 to 100 nM.

Regarding `COc1cccc(N(C(=O)CCl)c2nc(-c3ccc(Br)cc3)cs2)c1` [Compound B17, N-[4-(4-bromophenyl)thiazol-2-yl]-2-chloro-N-(3-methoxyphenyl)acetamide], the 50% inhibitory concentration (IC50) lay within 100 to 1000 nM.

In the case of `Cc1cc(C)cc(N(C(=O)CF)c2nc(-c3ccc(Br)cc3)cs2)c1` [Compound B27, N-[4-(4-bromophenyl)thiazol-2-yl]-N-(3,5-dimethylphenyl)-2-fluoro-acetamide], the IC50 was above 10000 nM.

`C=CC(=O)N(c1cc(C)cc(C)c1)c1nc(-c2ccc(Br)cc2)cs1` [Compound B7, N-[4-(4-bromophenyl)thiazol-2-yl]-N-(3,5-dimethylphenyl)prop-2-enamide] yielded an IC50 above 10000 nM.

Compound `C#CC(=O)N(c1cc(Cl)cc(OC)c1)c1nc(-c2ccc(Br)cc2)cs1` [Compound B26, N-[4-(4-bromophenyl)thiazol-2-yl]-N-(3-chloro-5-methoxy-phenyl)prop-2-ynamide] showed an IC50 of 10 to 100 nM.

Compound `Cc1cc(C)cc(N(C(=O)CCl)c2nc(C3CCCCC3)cs2)c1` [Compound B10, 2-chloro-N-(4-cyclohexylthiazol-2-yl)-N-(3,5-dimethylphenyl)acetamide] came in with an IC50 of 100 to 1000 nM.

Turning to `Cc1cc(C)cc(N(C(=O)CCl)c2nc(-c3cccc(Br)c3)cs2)c1` [Compound B12, N-[4-(3-bromophenyl)thiazol-2-yl]-2-chloro-N-(3,5-dimethylphenyl)acetamide], the 50% inhibitory concentration (IC50) was 100 to 1000 nM.

`Cc1cc(C)cc(N(C(=O)CCl)c2nc(-c3ccc(Br)cc3)cs2)c1` [Compound B5, N-[4-(4-bromophenyl)thiazol-2-yl]-2-chloro-N-(3,5-dimethylphenyl)acetamide] displayed a 50% inhibitory concentration (IC50) of 100 to 1000 nM.

As to `C#CC(=O)N(CCCOC)c1nc(-c2ccc(Br)cc2)cs1` [Compound B2, N-[4-(4-bromophenyl)thiazol-2-yl]-N-(3-methoxypropyl)prop-2-ynamide], the IC50 was in the range of 1000 to 10000 nM.

The compound `O=C(CCl)N(c1cc(F)cc(F)c1)c1nc(-c2ccc(Br)cc2)cs1` [Compound B25, N-[4-(4-bromophenyl)thiazol-2-yl]-2-chloro-N-(3,5-difluorophenyl)acetamide] returned a half-maximal inhibitory concentration (IC50) above 10000 nM.
